This note sets out measurements from patent publication US9688633B2, “Substituted piperidines with antiparasitic activity” (INSTITUT DE RECHERCHE POUR LE DEVELOPPEMENT, priority 2014, dated 2017).

Series [1] concerns Plasmodium falciparum FCR-3. In words: In vitro antiplasmodial drug assay ([3H]-hypoxanthine incorporation). The class given is cell-based. On the procedure:
The drugs dissolved in dimethylsulfoxide (DMSO) were added at final concentrations ranging from 200 to 0.1 μM. All experiments were performed in triplicate. The final DMSO concentration was never greater than 0.1%. […].
% Inhibition of the incorporation of labeled hypoxanthine=100−(P/T*100),
P: c.p.m. for every concentration, and
T: negative control (red blood cells without drug).

The subject of a further series is VERO cells. In words: Toxicity assay, MTT viability on VERO cells. The class given is cell-based, African Green Monkey. Conditions: VERO cells survival, 48 hours, MTT; average of three independent determinations; read-out: TC50 (the source's name). On the procedure:
(§1) Drugs were added at different concentrations and the cells were cultured for 48 hours. The effect was determined using the 3-(4,5-dimethylthiazol-2-yl)-2,5-diphenyltetrazolium bromide (MTT) viability assay. Four hours after the addition of MTT, 100 μl of lysis buffer (50% isopropanol, 30% water, 20% SDS) were added and the cells were incubated at room temperature for 15 min under agitation. Finally, optical density was read at 590 nm with a 96-well scanner (Bio-Rad). All experiments were performed in triplicate.

A further series relates to P. berghei ANKA. In words: In vivo antiplasmodial drug assay (4-day suppressive test) in murine model. Particulars: Swiss male mice, 4 consecutive days, read on day 4. On the procedure:
The antiplasmodial activity of Compound 7 was tested in vivo in a murine model. The antiplasmodial activity of a Compound A representative of the prior art was also tested: Studies were conducted according to the French and Colombian guidelines on laboratory animal use and care (No 2001-464 and No 008430, respectively). The classical 4-day suppressive test was carried out (W. Peters, Chemotherapy and drug resistance in malaria, Academic Press: London, 1970). Swiss male mice weighing 20±2 g, were infected with 10^7 P. berghei ANKA parasitized cells (day 0). […] […] Survival of the mice was checked daily and the percentage of parasitized erythrocytes was determined on day 4, by Giemsa-stained thin blood smears made from peripheral blood. The percentage of inhibition of parasitaemia was calculated.

Series [2] can be described thus: Toxicity assay, MTT viability on VERO cells. The class given is cell-based, African Green Monkey. Conditions: African green monkey. On the procedure:
as §1

In a further series the test system is mice. Description: Cytotoxicity (toxicity) after administration in a malaria murine model. Format: in vivo, mouse. Particulars: 50 mg·kg^-1, malaria murine model. On the procedure: The cytotoxicity of Compound 7 was compared to the cytotoxicity of Compound 31 of the publication of Silvia Perez-Silanes et al., Molecules 2009, 14, 4120-4135, the compounds only differentiated by the nature of the Ar group (4-fluoro-1-phenyl group vs benzo[b]thiophenyl).
Both compounds were administered at 50 mg·kg^−1 in a malaria murine model.

[3] abbreviates: chloroquine-resistant FCR-3 strain, 50% of Plasmodium falciparum growth, average of three independent determinations, read-out: IC50.
Setting [4] is: FCR3, chloroquine-resistant FCR-3 strain, 50% of Plasmodium falciparum growth, average of three independent determinations, read-out: IC50.

Like-named read-outs stand apart in the source and are kept apart here.

Consider “3-[4-(4-fluorophenyl)-3,6-dihydropyridin-1(2H)-yl]-1-(4-(trifluoromethyl phenyl)propan-1-ol) [Compound 4]”, for which the IC50 in series [1] (setting [3]) was 5600 nM. For the same compound, the CC50 with VERO cells was > 100 µM.
As for `CCN(CC)CCCC(C)Nc1ccnc2cc(Cl)ccc12` (stereo not drawn) [CQ, chloroquine, reference compound], the IC50 in series [1] (Plasmodium falciparum, FCR3) came out at 130 nM. For the same compound, in the series on P. berghei ANKA (3 mg/kg/day oral), the “percentage of inhibition of parasitaemia” value was found to be 65%.
As to `OC(CCN1CC=C(c2ccc(F)cc2)CC1)c1ccc2ccccc2c1` (stereo not drawn) [Compound 3, 3-[4-(4-fluorophenyl)-3,6-dihydropyridin-1(2H)-yl]-1-(naphthalen-2-yl)propan-1-ol], the melting point is 127 to 129 °C. Also, the IC50 in series [1] (setting [4]) came out at 36200 nM. In addition, the CC50 at 48 h in series [2] was > 100 µM.
For the compound `O=[N+]([O-])c1ccc(N2CCC(NCCC(O)c3ccc(F)c4ccccc34)CC2)c(C(F)(F)F)c1` (stereo not drawn) [Compound 5, 1-(4-fluoronaphthalen-1-yl)-3-((1-(4-nitro-2-(trifluoromethyl)phenyl)piperidin-4-yl)amino)propan-1-ol], the 50% inhibitory concentration (IC50) in series [1] (setting [4]) turned out to be 150 nM. In addition, the CC50 at 48 h in series [2] (VERO cells (kidney epithelial cells), VERO cells survival, 48 hours, MTT, average of three independent determinations, read-out: TC50) turned out to be 5.5 µM.
Turning to `OC(CCN1CC=C(c2ccc(F)cc2)CC1)c1ccc(F)c2ccccc12` (stereo not drawn) [Compound 6, 1-(4-fluoronaphthalen-1-yl)-3-[4-(4-fluorophenyl)-3,6-dihydropyridin-1(2H)-yl]propan-1-ol], the IC50 in series [1] (setting [4]) worked out at 400 nM. Moreover, the CC50 at 48 h in series [2] was > 50 µM.
As to `Cl.O=[N+]([O-])c1ccc(N2CCC(NCCC(O)c3ccc(F)cc3)CC2)c(C(F)(F)F)c1` (stereo not drawn) [Compound 7], the IC50 in series [1] (setting [3]) was found to be 480 nM. In addition, the “percentage of inhibition of parasitaemia” value in the series with P. berghei ANKA (50 mg/kg/day oral) is on record as 76%. For the same compound, the CC50 in the series with VERO cells was found to be 30.2 µM. The cytotoxicity after administration result in the series on mice was “No cytotoxicity was detected”.
Compound `OC(CCN1CC=C(c2ccc(F)cc2)CC1)c1ccc(F)cc1` (stereo not drawn) [Compound 8, 1-(4-fluorophenyl)-3-[4-(4-fluorophenyl)-3,6-dihydropyridin-1 (2H)-yl]propan-1-ol] yielded a melting point of 199 to 201 °C. In series [1] (setting [4]), the concentration for half-maximal inhibition (IC50) stood at 660 nM. For the same compound, the CC50 at 48 h in series [2] is > 100 µM.

One may read the IC50 as the concentration that inhibits the measured activity by half. Broadly, the melting point is the temperature of the solid-liquid transition.
